Assay results as given in ChEMBL document CHEMBL1201862, “PubChem BioAssay data set” (2004).
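Results reflect a 48-hour exposure of cells in 96-well plates to compound at five concentrations. The concentration for 50% growth inhibition is given as GI50.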 Calls of active or inactive are those of the source. No stated cut-off is given here; in the data, active = GI50 up to about 1.1 µM and inactive = higher.

Legend:
Experiment in all cases: NCI anticancer screen, dose series, 48 h
786-0 = tested on: 786-0
A549 = tested on: A549
ACHN = tested on: ACHN
CAKI-1 = tested on: CAKI-1
COLO 205 = tested on: COLO 205
HCT-116 = tested on: HCT-116
HOP-62 = tested on: HOP-62
HOP-92 = tested on: HOP-92
HT-29 = tested on: HT-29
K562 = tested on: K562
LOX IMVI = tested on: LOX IMVI
NCI-H460 = tested on: NCI-H460
OVCAR-4 = tested on: OVCAR-4
SF-295 = tested on: SF-295
SF-539 = tested on: SF-539
SNB-78 = tested on: SNB-78
UACC-62 = tested on: UACC-62
UO-31 = tested on: UO-31

Measured: GI50

N#Cc1ccc(/C=C(/C(=O)c2ccccc2)c2ccccc2)cc1
inactive: 786-0 10.9 µM | A549 16.9 µM | ACHN 15.5 µM | CAKI-1 14.2 µM | COLO 205 19.6 µM | HCT-116 4.18 µM | HOP-62 17.9 µM | HOP-92 14 µM | HT-29 8.18 µM | K562 2.6 µM | LOX IMVI 2.75 µM | NCI-H460 16.5 µM | OVCAR-4 10.2 µM | SF-295 9.55 µM | SF-539 21.2 µM | SNB-78 2.79 µM | UACC-62 7.48 µM | UO-31 14.2 µM

O=C(NCCc1ccccc1)C1C(=O)C(=O)N(CCc2ccccc2)C1=O (configuration not stated)
inactive: 786-0 > 100 µM | A549 > 100 µM | ACHN > 100 µM | CAKI-1 > 100 µM | HCT-116 > 100 µM | HOP-92 > 100 µM | HT-29 > 100 µM | K562 > 100 µM | LOX IMVI > 100 µM | SF-295 > 100 µM | SF-539 > 100 µM | SNB-78 > 100 µM | UACC-62 > 100 µM | UO-31 > 100 µM

NNC(=S)N/N=C(\CCCC(=O)NCCc1ccccc1)CC(=O)c1ccccc1
inactive: 786-0 > 100 µM | A549 > 100 µM | ACHN > 100 µM | COLO 205 > 100 µM | HCT-116 > 100 µM | HOP-62 > 100 µM | HOP-92 > 100 µM | HT-29 > 100 µM | NCI-H460 > 100 µM | OVCAR-4 > 100 µM | SF-295 > 100 µM | SF-539 > 100 µM | SNB-78 > 100 µM | UACC-62 > 100 µM | UO-31 > 100 µM

O=C(O)CN1CCSc2ccccc2CN(CC(=O)O)CCSc2ccccc2C1
inactive: 786-0 > 100 µM | A549 > 100 µM | ACHN > 100 µM | CAKI-1 > 100 µM | COLO 205 > 100 µM | HCT-116 > 100 µM | HOP-62 > 100 µM | HOP-92 > 100 µM | HT-29 > 100 µM | K562 > 100 µM | LOX IMVI > 100 µM | NCI-H460 > 100 µM | SF-295 > 100 µM | SF-539 > 100 µM | SNB-78 > 100 µM | UACC-62 > 100 µM | UO-31 > 100 µM

CC(=O)O[C@H]1CC[C@@]2(C)C(=CC[C@H]3C4=CC=C(C(C)=O)[C@@]4(C)CCC32)C1 (some centres not stated)
inactive: 786-0 35.5 µM | A549 36.4 µM | ACHN 34.1 µM | CAKI-1 34.8 µM | COLO 205 13.4 µM | HCT-116 15.6 µM | HOP-62 > 100 µM | HOP-92 27.6 µM | HT-29 34.4 µM | LOX IMVI 15.5 µM | NCI-H460 43.7 µM | OVCAR-4 40.6 µM | SF-295 41 µM | SF-539 47 µM | SNB-78 28.2 µM | UACC-62 18.8 µM | UO-31 43.7 µM

CC(=O)Nc1cccc(/N=N/N(C)C)c1
inactive: A549 > 100 µM | CAKI-1 > 100 µM | COLO 205 > 100 µM | HCT-116 > 100 µM | HOP-62 > 100 µM | HOP-92 > 100 µM | HT-29 > 100 µM | K562 98.4 µM | LOX IMVI > 100 µM | NCI-H460 > 100 µM | OVCAR-4 > 100 µM | SF-295 > 63.8 µM | SF-539 > 100 µM | SNB-78 > 100 µM | UACC-62 > 100 µM | UO-31 > 100 µM

COc1cccc(NC(=O)CC(=O)N2N=C(N(CCC#N)c3ccccc3C)CC2c2ccccc2)c1 (configuration not stated)
inactive: 786-0 > 100 µM | A549 > 100 µM | ACHN > 100 µM | CAKI-1 > 100 µM | COLO 205 > 100 µM | HCT-116 > 100 µM | HOP-62 > 100 µM | HOP-92 > 100 µM | HT-29 > 100 µM | K562 > 100 µM | NCI-H460 > 100 µM | OVCAR-4 > 100 µM | SF-295 > 100 µM | SF-539 > 100 µM | SNB-78 > 100 µM | UACC-62 > 100 µM | UO-31 > 100 µM

CCCC(O)C(NC(=O)CCl)C(=O)O (configuration not stated)
inactive: A549 > 100 µM | CAKI-1 > 100 µM | COLO 205 > 100 µM | HCT-116 > 100 µM | HOP-62 > 100 µM | HOP-92 > 100 µM | HT-29 > 100 µM | K562 > 100 µM | LOX IMVI > 100 µM | NCI-H460 > 100 µM | OVCAR-4 > 100 µM | SF-295 > 100 µM | SF-539 > 100 µM | SNB-78 > 100 µM | UACC-62 > 100 µM | UO-31 > 100 µM

CSCCC(NC(=O)C(Cc1ccccc1)NC(=O)CNC(=O)CNC(=O)C(N)Cc1ccc(O)cc1)C(=O)O (configuration not stated)
inactive: A549 > 100 µM | CAKI-1 > 100 µM | COLO 205 > 100 µM | HCT-116 > 100 µM | HOP-62 > 100 µM | HOP-92 > 100 µM | HT-29 > 100 µM | K562 > 100 µM | LOX IMVI > 100 µM | NCI-H460 > 100 µM | OVCAR-4 > 100 µM | SF-295 > 100 µM | SF-539 > 100 µM | SNB-78 > 100 µM | UACC-62 > 100 µM | UO-31 > 100 µM

COc1ccc2c(c1O)C(=O)C(CCC(=O)O)CC2 (configuration not stated)
inactive: 786-0 > 100 µM | A549 > 100 µM | ACHN > 100 µM | CAKI-1 > 100 µM | COLO 205 > 100 µM | HCT-116 > 100 µM | HOP-62 > 100 µM | HOP-92 > 100 µM | HT-29 > 100 µM | LOX IMVI > 100 µM | NCI-H460 > 100 µM | OVCAR-4 > 100 µM | SF-295 30.9 µM | SF-539 > 100 µM | SNB-78 > 100 µM | UACC-62 > 100 µM

O=P(Nc1ccccc1)(Oc1ccccc1)N(CCCl)CCCl (configuration not stated)
inactive: A549 94 µM | ACHN > 100 µM | CAKI-1 > 100 µM | COLO 205 > 100 µM | HCT-116 > 100 µM | HOP-62 > 100 µM | HOP-92 26.4 µM | HT-29 > 100 µM | K562 > 100 µM | OVCAR-4 > 100 µM | SF-295 69.3 µM | SF-539 > 100 µM | SNB-78 > 100 µM | UACC-62 89.1 µM | UO-31 12.4 µM

C[C@]12C/C(=C/O)C(=O)C(O)=C1CC[C@@H]1C2CC[C@@]2(C)C1CC[C@@H]2O (some centres not stated)
inactive: 786-0 33.3 µM | A549 57.8 µM | ACHN 27.8 µM | CAKI-1 26.1 µM | COLO 205 21.2 µM | HOP-62 46.7 µM | HOP-92 23.1 µM | HT-29 25.3 µM | K562 22.3 µM | LOX IMVI 12 µM | NCI-H460 21.8 µM | OVCAR-4 23.9 µM | SF-295 26.7 µM | SF-539 18.7 µM | SNB-78 19.7 µM | UACC-62 16.5 µM | UO-31 16.3 µM

O=C1CC2(CCC3=C(O2)c2ccccc2NC(=O)C3)C(=O)c2ccccc2N1 (configuration not stated)
inactive: 786-0 > 100 µM | A549 > 100 µM | ACHN > 100 µM | COLO 205 > 100 µM | HCT-116 > 100 µM | HOP-62 > 100 µM | HT-29 > 100 µM | K562 48.1 µM | LOX IMVI > 100 µM | NCI-H460 > 100 µM | OVCAR-4 > 100 µM | SF-295 > 100 µM | SF-539 > 100 µM | SNB-78 > 100 µM | UACC-62 > 100 µM | UO-31 41.9 µM

O=C1c2ccccc2C(=O)c2c1ccc1c2N=C(c2ccc(Br)cc2)CC(c2cccc3ccccc23)N1 (configuration not stated)
inactive: 786-0 > 100 µM | A549 > 100 µM | ACHN > 100 µM | CAKI-1 > 100 µM | COLO 205 > 100 µM | HOP-62 > 100 µM | HT-29 > 100 µM | K562 > 100 µM | LOX IMVI > 100 µM | NCI-H460 > 100 µM | OVCAR-4 > 100 µM | SF-295 > 100 µM | SF-539 > 100 µM | SNB-78 > 100 µM | UACC-62 > 100 µM | UO-31 > 100 µM

Cc1cccc(=O)c([O-])c1.Cc1cccc(=O)c([O-])c1.[Bi+3].[Cl-]
inactive: 786-0 13.7 µM | A549 12.9 µM | ACHN 7.31 µM | CAKI-1 15.5 µM | HCT-116 3.33 µM | HOP-62 14 µM | HOP-92 6.01 µM | HT-29 11.4 µM | K562 4.46 µM | LOX IMVI 9.55 µM | NCI-H460 4.32 µM | OVCAR-4 6.07 µM | SF-295 10.4 µM | SF-539 12 µM | SNB-78 24 µM | UACC-62 7.96 µM | UO-31 11.5 µM

NC(=O)c1ncn2c1NCC1OC2C(O)C1O (configuration not stated)
inactive: 786-0 > 100 µM | A549 > 100 µM | ACHN > 100 µM | CAKI-1 > 100 µM | COLO 205 > 100 µM | HCT-116 > 100 µM | HOP-62 > 100 µM | HOP-92 > 100 µM | HT-29 > 100 µM | K562 > 100 µM | LOX IMVI > 100 µM | OVCAR-4 > 100 µM | SF-295 > 100 µM | SF-539 > 100 µM | SNB-78 > 100 µM | UACC-62 > 100 µM | UO-31 > 100 µM

CC(C)CCCC(C)[C@H]1CCC2[C@@H]3CCC4Nc5nocc5C[C@]4(C)C3CC[C@@]21C (some centres not stated)
inactive: 786-0 11.4 µM | A549 21.2 µM | ACHN 14.7 µM | CAKI-1 14.4 µM | COLO 205 6.14 µM | HCT-116 18.4 µM | HOP-62 47.1 µM | HT-29 18.5 µM | K562 15.8 µM | LOX IMVI 2.23 µM | NCI-H460 20 µM | OVCAR-4 19.4 µM | SF-295 19.3 µM | SF-539 18.9 µM | SNB-78 19.3 µM | UACC-62 22.5 µM | UO-31 14.6 µM
